Data: patent US20220259593A1, “CONTROL OF MAMMALIAN GENE DOSAGE USING CRISPR” (The Regents of the University of California, priority 2019, published 2022)

Assays:
[1] = system: K562 CRISPRi cells; assay: Perturb-seq pooled growth measurement (sgRNA counts, growth phenotype γ, relative activity); format: cell-based, human; settings: γ relative to perfectly matched sgRNA (_00) of the same gene, day 10
[2] = system: K562 CRISPRi cells; assay: as above; format: cell-based, human; settings: for gamma_day5 / gamma_day10: pooled growth phenotype γ of the Perturb-seq sgRNA; for gamma_day5: day 5, K562 CRISPRi cells; for gamma_day10: day 10, K562 CRISPRi cells; for relative_activity_day5: γ relative to perfectly matched sgRNA (_00) of the same gene, day 5
How it was run: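 sgRNA abundance was sequenced from genomic DNA of the same transduced population sampled on days two, seven and twelve. Phenotype γ compares normalized day seven and twelve counts with day two. Day-seven values (five days of growth) define relative sgRNA activity.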

Substance	relative_activity_day10 [1]	gamma_day5 [2]	gamma_day10 [2]	relative_activity_day5 [2]
RPS15_ −_1438413.23-P1P2_07 (guide GACCAAAGCGGTCTCTTCTG; listed as DNA, chemistry not fully specified)	0.8176	−0.5221	−0.3074	0.8404
RPS15_ −_1438413.23-P1P2_12 (guide GACCAAAGCGATCTCTTGTG; listed as DNA, chemistry not fully specified)	0.03119	0.0311	0.01173	0.05005
RPS18_ + _33239917.23-P1P2_00 (guide GCTGCGATGCCGCTGGATCA; listed as DNA, chemistry not fully specified)	1	−0.8169	−0.503	1
RPS18_ + _33239917.23-P1P2_01 (guide GCTGCAATGCCGCTGGATCA; listed as DNA, chemistry not fully specified)	0.7514	−0.5598	−0.3779	0.6853
RPS18_ + _33239917.23-P1P2_02 (guide GCTGGGATGCCGCTGGATCA; listed as DNA, chemistry not fully specified)	0.6345	−0.4898	−0.3191	0.5995
RPS18_ + _33239917.23-P1P2_04 (guide GCTGCGATCCCGCTGGATCA; listed as DNA, chemistry not fully specified)	0.1604	−0.08697	−0.08068	0.1065
RPS18_ + _33239917.23-P1P2_08 (guide GCTGCGATTCCGCTGGATCA; listed as DNA, chemistry not fully specified)	0.3255	−0.2228	−0.1637	0.2727
SEC61A1_ −_127771295.23-P1_00 (guide GGCACTGACGTGTCTCTCGG; listed as DNA, chemistry not fully specified)	1	−0.92	−0.5629	1
SEC61A1_ −_127771295.23-P1_01 (guide GGCACTGTCGTGTCTCTCGG; listed as DNA, chemistry not fully specified)	0.5184	−0.4191	−0.2918	0.4556
SEC61A1_ −_127771295.23-P1_02 (guide GGCGCTGACGTGTCTCTCGG; listed as DNA, chemistry not fully specified)	0.7203	−0.6451	−0.4055	0.7012
SEC61A1_ −_127771295.23-P1_03 (guide GGTACTGACGTGTCTCTCGG; listed as DNA, chemistry not fully specified)	0.6074	−0.5031	−0.3419	0.5469
SEC61A1_ −_127771295.23-P1_04 (guide GGCACTGAAGTGTCTCTCGG; listed as DNA, chemistry not fully specified)	0.2049	−0.1539	−0.1153	0.1673
TUBB_ + _30688126.23-P1_00 (guide GCGGCAGGAAGGTTCTGAGA; listed as DNA, chemistry not fully specified)	1	−0.897	−0.6999	1
TUBB_ + _30688126.23-P1_01 (guide GCAGCAGGAAGGTTCTGAGA; listed as DNA, chemistry not fully specified)	0.8743	−0.926	−0.6119	1.032
TUBB_ + _30688126.23-P1_03 (guide GCGGCAGCAAGGTTCTGAGA; listed as DNA, chemistry not fully specified)	0.7085	−0.6926	−0.4959	0.7721
TUBB_ + _30688126.23-P1_06 (guide GCGGCAGGACGGTTCTGAGA; listed as DNA, chemistry not fully specified)	0.7922	−0.7308	−0.5544	0.8147
TUBB_ + _30688126.23-P1_10 (guide GCGGCAGGAAGGTTCAGAGA; listed as DNA, chemistry not fully specified)	0.2073	−0.1978	−0.1451	0.2205
